# In ChEMBL document CHEMBL1629567, “Pharmacodynamics of cidofovir for vaccinia virus infection in an in vitro hollow-fiber infection model system” (Antimicrob Agents Chemother, 2009):
# Activity calls are given as the source filed them. The rule behind the calls is not given here.
# Columns and labels:
# Vaccinia virus [1] = assay: Antiviral activity against Vaccinia virus WR harboring HIV gag gene infected in HeLaS3 cells at 100 uM administered as intermittent infusion over 1 hr measured in hollow-fiber infection model after 72 hrs by ELISA; type: functional, organism-based; details: Orthopoxvirus vaccinia, HeLa S3
# Vaccinia virus [2] = assay: Antiviral activity against Vaccinia virus WR harboring HIV gag gene infected in HeLaS3 cells compound administered as bolus infusion equivalent to 100 uM continuous infusion in hollow-fiber infection model after 72 hrs by ELISA; type: functional, Orthopoxvirus vaccinia, HeLa S3
# Vaccinia virus [3] = assay: Antiviral activity against Vaccinia virus WR harboring the HIV gag gene infected in HeLaS3 cells after 3 to 5 days by plaque assay; type: functional, organism-based; details: Orthopoxvirus vaccinia, HeLa S3
# Vaccinia virus [4] = assay: Antiviral activity against Vaccinia virus WR harboring the HIV gag gene infected in HeLaS3 cells assessed as inhibition of viral replication in hollow-fiber infection model at >= 50 uM as continuous infusion by plaque assay; type: functional, organism-based; details: Orthopoxvirus vaccinia, HeLa S3
# Vaccinia virus [5] = assay: Antiviral activity against Vaccinia virus WR harboring HIV gag gene infected in HeLaS3 cells at 3 uM as continuous infusion in hollow-fiber infection model after 72 hrs by ELISA; type: functional, organism-based; details: Orthopoxvirus vaccinia, HeLa S3
# Vaccinia virus [6] = assay: Antiviral activity against Vaccinia virus WR harboring HIV gag gene infected in HeLaS3 cells at 100 uM as continuous infusion in hollow-fiber infection model after 72 hrs by ELISA; type: functional, organism-based; details: Orthopoxvirus vaccinia, HeLa S3
# Vaccinia virus [7] = assay: Antiviral activity against Vaccinia virus WR harboring HIV gag gene infected in HeLaS3 cells at 30 uM administered as intermittent infusion over 1 hr measured in hollow-fiber infection model after 72 hrs by ELISA; type: functional, organism-based; details: Orthopoxvirus vaccinia, HeLa S3
# Vaccinia virus [8] = assay: Antiviral activity against Vaccinia virus WR harboring HIV gag gene infected in HeLaS3 cells at 30 uM as continuous infusion in hollow-fiber infection model after 72 hrs by ELISA; type: functional, organism-based; details: Orthopoxvirus vaccinia, HeLa S3
# Vaccinia virus [9] = assay: Antiviral activity against Vaccinia virus WR harboring the HIV gag gene infected in HeLaS3 cells assessed as inhibition of viral replication in hollow-fiber infection model by plaque assay; type: functional, organism-based; details: Orthopoxvirus vaccinia, HeLa S3
# Vaccinia virus [10] = assay: Antiviral activity against Vaccinia virus WR harboring HIV gag gene infected in HeLaS3 cells at 3 uM administered as intermittent infusion over 1 hr measured after 72 hrs in hollow-fiber infection model by ELISA; type: functional, organism-based; details: Orthopoxvirus vaccinia, HeLa S3
smiles,measurement,setting,value
Nc1ccn(C[C@@H](CO)OCP(=O)(O)O)c(=O)n1.O.O [CIDOFOVIR],Activity,Vaccinia virus [1],inactive
same,Activity,Vaccinia virus [2],81%
same,EC50,Vaccinia virus [3],30.9 µM
same,inhibition,Vaccinia virus [4],Active
same,Activity,Vaccinia virus [5],inactive
same,Activity,Vaccinia virus [6],inactive
same,Activity,Vaccinia virus [7],inactive
same,Activity,Vaccinia virus [8],inactive
same,IC50,Vaccinia virus [9],38 µM
same,Activity,Vaccinia virus [10],inactive
